In US20060166900A1, “Salt of morphine-6-glucuronide” (CeNeS Limited, priority 2002, published 2006):

Key:
Type in all cases: physicochemical
[1] = Stability of M6G salts at room temperature over 6 years, HPLC; details: for Assay M6G corr.: content calculated as M6G derivative
[2] = Water content by Karl Fisher analysis on storage (Example 3)
Method in brief: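 900 mg aliquots were held in argon-flushed brown opaque HDPE bottles at 25 °C/60% RH, 40 °C/75% RH and 60 °C. At each time point, water content (% w/w) was determined in duplicate on about 100 mg of equilibrated material by Karl Fischer titration.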

[3] = Visual appearance on storage (Example 3)
Method in brief: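 Aliquots (900 mg) kept at 2-8 °C beforehand were stored in argon-flushed brown opaque HDPE bottles at 25 °C/60% RH, 40 °C/75% RH and 60 °C. Visual appearance was assessed at set time points.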

[4] = Colour of solution by visible spectrophotometry on storage (Example 3); details: 5% w/v solution in water
Method in brief: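 5% w/v aqueous solution, absorbance at 420 nm in a 1 cm silica cell. Samples were stored in argon-flushed brown opaque HDPE bottles at 25° C./60% RH, 40° C./75% RH and 60° C.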

[5] = Stability indicating HPLC assay and related substances on storage (Example 3)
[6] = almost 6 years at room temperature

With `CN1CCC23c4c5ccc(O)c4OC2C(OC2OC(C(=O)O)C(O)C(O)C2O)C=CC3C1C5.CN1CCC23c4c5ccc(O)c4OC2C(OC2OC(C(=O)O)C(O)C(O)C2O)C=CC3C1C5.O=S(=O)(O)O` (centres unmarked) [Morphine-6-glucuronide sulphate] the HN-33177 ([1]; 0 years) was 0.2%, the HN-75083 ([1]; 0 years) was <0.1% and the “Unknown related substances (sum area %)” value ([1]; 0 years) was 0.2 area %. The “Assay M6G corr.” value ([1]; 0 years) was 93.6%, the HN-33177 ([1]; 6 years at ambient temperature) was 0.3% and the HN-67002 ([1]; 6 years at ambient temperature) was 1.1%. The HN-67003 ([1]; 6 years at ambient temperature) was 1.8%, the Morphine ([1]; 6 years at ambient temperature) was 0.2% and the “Unknown related substances (sum area %)” value ([1]; 6 years at ambient temperature) was 10.7 area %. The “Assay M6G corr.” value ([1]; 6 years at ambient temperature) was 76.8%, the HN-33177 ([1]; 6 years at ambient temperature, listed as M6G2.H2SO4) was “did not change” and the largest unidentified peak [1, 6] was 6.55 area %. For the same molecule, the “peaks present in the chromatogram that cannot be identified by retention time” value [1, 6] was 13, the Moisture ([2]; 1 month, 25° C./60% RH) was 4.28 % w/w and the Moisture ([2]; 1 month, 40° C./75% RH) was 5.93 % w/w. The Moisture ([2]; 1 month, 60° C.) was 4.68 % w/w, the Moisture ([2]; 3 months, 25° C./60% RH) was 5.54 % w/w and the Moisture ([2]; 3 months, 40° C./75% RH) was 8.31 % w/w. The Moisture ([2]; Initial) was 3.77 % w/w, the Appearance ([3]; 1 month, 25° C./60% RH) was “White crystalline powder” and the Appearance ([3]; 1 month, 40° C./75% RH) was “Slightly yellow crystalline powder”. For the same molecule, the Appearance ([3]; 1 month, 60° C.) was “Pale yellow crystalline powder”, the Appearance ([3]; 3 months, 25° C./60% RH) was “Pale yellow crystalline powder” and the Appearance ([3]; 3 months, 40° C./75% RH) was “Slightly yellow crystalline powder”. For the same molecule, the Appearance ([3]; Initial) was “White crystalline powder”, the Colour ([4]; 1 month, 25° C./60% RH) was 0.244 Abs@420 nm and the Colour ([4]; 1 month, 40° C./75% RH) was 0.430 Abs@420 nm. The Colour ([4]; 1 month, 60° C.) was 1.714 Abs@420 nm, the Colour ([4]; 3 months, 25° C./60% RH) was 0.406 Abs@420 nm and the Colour ([4]; 3 months, 40° C./75% RH) was 1.056 Abs@420 nm. The Colour ([4]; Initial) was 0.136 Abs@420 nm, the “Known Related Substances HN33177” value ([5]; 1 month, 25° C./60% RH) was 0.63% and the “Known Related Substances HN67003” value ([5]; 1 month, 25° C./60% RH) was 0.69%. For the same molecule, the “Known Related Substances HN75083” value ([5]; 1 month, 25° C./60% RH) was 0.27%, the “M6G Assay, Anhydrous basis” value ([5]; 1 month, 25° C./60% RH) was 81.82 % w/w and the “M6G Assay, As is basis” value ([5]; 1 month, 25° C./60% RH) was 73.58 % w/w. The “M6G Assay, Corrected for the salt form” value ([5]; 1 month, 25° C./60% RH) was 90.51 % w/w, the “Total Known” value ([5]; 1 month, 25° C./60% RH) was 1.59% and the “Total Related Substances” value ([5]; 1 month, 25° C./60% RH) was 4.29%. For the same molecule, the “Total Unknown” value ([5]; 1 month, 25° C./60% RH) was 2.70%, the “Known Related Substances HN33177” value ([5]; 1 month, 40° C./75% RH) was 0.50% and the “Known Related Substances HN67003” value ([5]; 1 month, 40° C./75% RH) was 1.58%. The “Known Related Substances HN75076” value ([5]; 1 month, 40° C./75% RH) was 0.06%, the “Known Related Substances HN75083” value ([5]; 1 month, 40° C./75% RH) was 0.74% and the “Known Related Substances Morphine” value ([5]; 1 month, 40° C./75% RH) was 0.21%. For the same molecule, the “M6G Assay, Anhydrous basis” value ([5]; 1 month, 40° C./75% RH) was 73.67 % w/w, the “M6G Assay, As is basis” value ([5]; 1 month, 40° C./75% RH) was 65.04 % w/w and the “M6G Assay, Corrected for the salt form” value ([5]; 1 month, 40° C./75% RH) was 81.50 % w/w. For the same molecule, the “Total Known” value ([5]; 1 month, 40° C./75% RH) was 3.09%, the “Total Related Substances” value ([5]; 1 month, 40° C./75% RH) was 9.78% and the “Total Unknown” value ([5]; 1 month, 40° C./75% RH) was 6.69%. The “Known Related Substances HN33177” value ([5]; 1 month, 60° C.) was 0.23%, the “Known Related Substances HN67003” value ([5]; 1 month, 60° C.) was 2.73% and the “Known Related Substances HN75076” value ([5]; 1 month, 60° C.) was 0.26%. For the same molecule, the “Known Related Substances HN75083” value ([5]; 1 month, 60° C.) was 0.61%, the “Known Related Substances Morphine” value ([5]; 1 month, 60° C.) was 0.72% and the “M6G Assay, Anhydrous basis” value ([5]; 1 month, 60° C.) was 63.84 % w/w. The “M6G Assay, As is basis” value ([5]; 1 month, 60° C.) was 57.15 % w/w, the “M6G Assay, Corrected for the salt form” value ([5]; 1 month, 60° C.) was 70.62 % w/w and the “Total Known” value ([5]; 1 month, 60° C.) was 4.55%. The “Total Related Substances” value ([5]; 1 month, 60° C.) was 18.25%, the “Total Unknown” value ([5]; 1 month, 60° C.) was 13.70% and the “Known Related Substances HN33177” value ([5]; 3 months, 25° C./60% RH) was 0.52%. The “Known Related Substances HN67003” value ([5]; 3 months, 25° C./60% RH) was 1.36%, the “Known Related Substances HN75083” value ([5]; 3 months, 25° C./60% RH) was 0.53% and the “Known Related Substances Morphine” value ([5]; 3 months, 25° C./60% RH) was 0.17%. For the same molecule, the “M6G Assay, Anhydrous basis” value ([5]; 3 months, 25° C./60% RH) was 77.05 % w/w, the “M6G Assay, As is basis” value ([5]; 3 months, 25° C./60% RH) was 69.08 % w/w and the “M6G Assay, Corrected for the salt form” value ([5]; 3 months, 25° C./60% RH) was 85.24 % w/w. For the same molecule, the “Total Known” value ([5]; 3 months, 25° C./60% RH) was 2.58%, the “Total Related Substances” value ([5]; 3 months, 25° C./60% RH) was 9.16% and the “Total Unknown” value ([5]; 3 months, 25° C./60% RH) was 6.58%. The “Known Related Substances HN33177” value ([5]; 3 months, 40° C./75% RH) was 0.23%, the “Known Related Substances HN67003” value ([5]; 3 months, 40° C./75% RH) was 1.72% and the “Known Related Substances HN75076” value ([5]; 3 months, 40° C./75% RH) was 0.04%. The “Known Related Substances HN75083” value ([5]; 3 months, 40° C./75% RH) was 0.58%, the “Known Related Substances Morphine” value ([5]; 3 months, 40° C./75% RH) was 0.37% and the “M6G Assay, Anhydrous basis” value ([5]; 3 months, 40° C./75% RH) was 68.38 % w/w. For the same molecule, the “M6G Assay, As is basis” value ([5]; 3 months, 40° C./75% RH) was 59.39 % w/w, the “M6G Assay, Corrected for the salt form” value ([5]; 3 months, 40° C./75% RH) was 75.64 % w/w and the “Total Known” value ([5]; 3 months, 40° C./75% RH) was 2.75%. For the same molecule, the “Total Related Substances” value ([5]; 3 months, 40° C./75% RH) was 17.98%, the “Total Unknown” value ([5]; 3 months, 40° C./75% RH) was 15.23% and the stability assessment ([5]; 25° C./60% RH, three months) was “least stable”. The “Known Related Substances HN33177” value ([5]; Initial) was 0.69%, the “Known Related Substances HN67003” value ([5]; Initial) was 0.15% and the “Known Related Substances HN75076” value ([5]; Initial) was 0.01%. For the same molecule, the “Known Related Substances HN75083” value ([5]; Initial) was 0.23%, the “M6G Assay, Anhydrous basis” value ([5]; Initial) was 88.49 % w/w and the “M6G Assay, As is basis” value ([5]; Initial) was 80.62 % w/w. For the same molecule, the “M6G Assay, Corrected for the salt form” value ([5]; Initial) was 97.87 % w/w, the “Total Known” value ([5]; Initial) was 1.08% and the “Total Related Substances” value ([5]; Initial) was 1.72%. The “Total Unknown” value ([5]; Initial) was 0.64% and the overall stability comparison ([5]; overall review of Example 3 data) was “least stable”.
